# Data taken from patent publication US4840941A, “Method for inhibiting infection of human T-cells” (Kabushiki Kaisha Ueno Seiyaku Oyo Kenkyujo, priority 1986, dated 1989).
# Assays:
# HTLV-III = assay: Anti-AIDS activity, infected cell rate of MT-4 cells infected with HTLV-III at 6th day; assay type: cell-based; details: for anti-AIDS virus activity: MT-4 cells, HTLV-III
# Experimental: To MT-4 cells (30×10^4 /ml) cultured in RPMI-1640 medium containing 10% bovine serum, was inoculated HTLV-III, and the suspension was incubated at 37° C. for 1 hour to cause the adsorption of the virus. The cell:virus ratio was 500:1. The cells were then washed, and cultured with or without various doses of the test substances (same as those of Example 1) at 37° C. under 5% CO2 for 3 days, after which cell growth, viability, and percentage of infected cells were recorded. The infected cells were distinguished from the uninfected cells by indirect immuno-fluorescence method. Thus; the cultured cells were fixed with cold methanol on a slide glass, reacted with antibody to the HTLV-III-specific antigens, and further with the secondary antibody (having fluorescent label). The results are shown in FIGS. 9-29, wherein, , and show the controls without virus; , and show the infection experiments with HTLV-III. The cell growth is indicated in number of cells, the viability (%) in number of viable cells×100/number of total cells, and the infected cell rate (%) in number of fluorescent-positive cells×100/number of total cells.
# In order to examine the correlation between the anti-AIDS virus activity and the molecular structure (especially, molecular weight and S-content or number of sulfate group in this case) of various test substances including those used in Examples 1-7, the anti-AIDS activities were evaluated for the various naturally occurring polysaccharides, polysaccharides having sulfate group, mucopolysaccharides, mucopolysaccharide sulfate, and mucopolysaccharide polysulfate. Further, similar experiments were carried out with various other sulfates which were synthetically obtained. The experimental procedures employed are identical to that in preceding experiments. The cultured MT-4 cells were infected with HTLV-III and the inhibitory effects of various test subsutances on the infected cell rate (number of fluorescent cell×100/ total cell, %) were determined at 6th day.
# [1] = test system: Friend leukemia virus (F-MuLV); assay: Anti-Friend leukemia virus activity, XC-plaque assay, Procedure 1; assay type: cell-based; details: for Number of plagues per dish: control 168
# Experimental: (§1) Anti-FMuLV activity of dextram sulfate (molecular weight: 7000-8000, S-content: 17-20%) was determined by a XC-plaque assay method. BALB3T3 cells were cultured in adhesive form in a 35 mm-dish at 5×10^4 cells/dish (2 ml). After removing the culture medium, a fresh medium with or without indicating concentrations of the test substance (1 ml each) and 0.2 ml of the virus preparation were charged, and the cells were cultured overnight. On the following day, the culture media were replaced with those (2 ml) containing or not containing the above substances, the incubation was continued for three additional days to progress the infection and replication of the virus. After the removal of the medium, the further progression of viral replication was stopped by UV irradiation. To this dish, the suspension of XC-cells (2 ml) was added and cultured for three days and the plaque formation produced by the virus particle induced cell-fusion, was observed.
# [2] = test system: Friend leukemia virus (F-MuLV); assay: Anti-Friend leukemia virus activity, XC-plaque assay, Procedure 2; assay type: cell-based; details: for Number of plaques per dish: control 35
# Experimental: as §1
# Procedure 1 was repeated except that after adsorption of the virus in the medium without DS, the non-adsorbed viruses were removed and the culture was carried out in the medium (2 ml) containing or not containing DS.
# MT-4 cells = assay: Cytotoxicity, proliferation and viability of MT-4 cells without virus; assay type: cell-based, human; details: no virus
# Experimental: MT-4 cells were cultured with or without 1-100 μg/ml of each test substance which is the same as in Example 1 and 3 and the proliferation and viability of cells were recorded.
# Without the virus, MT-4 cells were cultured in the same manner as in Example 4 except the test sample was heparin, and proliferation and viability of cells were recorded.
# [3] = test system: reverse transcriptase (authentic sample) derived from Avian Myeloblastosis Virus; assay: Inhibition of reverse transcriptase activity (AMV); assay type: biochemical; details: AMV enzyme; 1, 0.1 and 0.01 μg/ml
# Experimental: Test substances were assayed for inhibition against the enzyme activity of reverse transcriptase (authentic sample) derived from Avian Myeloblastosis Virus (abbrev. AMV), a kind of retrovirus. Five microliters of […] (template RNA), 4 μl of (dT)12-18 (primer DNA), and 1 μl of water were mixed with 5 μl of 0.5M Tris-CHl (pH 8.4) including 0.1% triton X-100, 5 μl of […], 5 μl of 20 mM-DDT, 5 μl of water, and [^3 H]-TTP (tritium labeled thymidine triphosphate). To this mixture, test substances in solutions (final concentrations: 1, 0.1, and 0.01 μg/ml, 5 μl) or buffer solutions (control, 5 μl) at various doses were added. Then, 5 μl (one unit) of the authentic reverse transcriptase derived from AMV was added and the reaction mixture was incubated at 37° C. for 30 minutes. The reaction was stopped by addition of trichloroacetic acid, and after filtering the reaction mixture, the radioactivity of the polymerized (^3 H-T)n retained on the filter was measured using a liquid scintillation counter. As the test substances, sodium dextran sulfate (molecular weight: 5000), same (molecular weight: 8000), same (molecular weight: 500000), fucoidin, κ-carrageenan, λ-carrageenan, and .iota.-carrageenan were used.
# The effects of the test substances on the reverse transcriptase activity of AMV were evaluated by the method described in Example 1.
# [4] = Acute toxicity (LD50) in mice; assay type: in vivo
# [5] = 10 μg/ml, 6th day, control 100%
# [6] = 100 μg/ml, 6th day, control 100%
# [7] = 10 μg/ml, 6th day, control 100%, 8640 min
# [8] = 100 μg/ml, 6th day, control 100%, 8640 min
# [9] = 1000 μg/ml, 6th day, control 100%
molecule,measurement,setting,value
O=C[C@H](O)[C@@H](O)[C@H](O)[C@H](O)COS(=O)(=O)O [Glucose-6-sulfate],Infected cell rate (% of total cells) at 10 µg/mL,"HTLV-III; Human immunodeficiency virus 1, MT4, 144 h, 10 μg/ml, 6th day, control 100%",100%
same,Infected cell rate (% of total cells) at 100 µg/mL,"HTLV-III; Human immunodeficiency virus 1, MT4, 144 h, 100 μg/ml, 6th day, control 100%",100%
same,Infected cell rate (% of total cells) at 1000 µg/mL,"HTLV-III; Human immunodeficiency virus 1, MT4, 144 h, 1000 μg/ml, 6th day, control 100%",100%
OC[C@H]1O[C@H](OC[C@H]2O[C@H](O[C@]3(CO)O[C@H](CO)[C@@H](O)[C@@H]3O)[C@H](O)[C@@H](O)[C@@H]2O)[C@H](O)[C@@H](O)[C@H]1O [raffinose],anti-AIDS virus activity,HTLV-III; 6th day,neither methylcellulose showed any anti-AIDS virus activities
.iota.-Carrageenan,Infected cell (%),HTLV-III; [5],100%
same,Infected cell (%),HTLV-III; [6],31%
Agarose,Infected cell (%),HTLV-III; [5],100%
same,Infected cell (%),HTLV-III; [6],100%
Alginic acid,Infected cell (%),HTLV-III; [5],100%
same,Infected cell (%),HTLV-III; [6],100%
Alginic acid sulfate,Infected cell (%),HTLV-III; [5],7%
same,Infected cell (%),HTLV-III; [6],4%
same,anti-AIDS virus activity,HTLV-III; 6th day,particularly strong anti-AIDS virus activities
Chitin,Infected cell (%),HTLV-III; [5],100%
same,Infected cell (%),HTLV-III; [6],100%
Chitin sulfate,Infected cell (%),HTLV-III; [5],100%
same,Infected cell (%),HTLV-III; [6],81%
Chitosan,Infected cell (%),HTLV-III; [5],100%
same,Infected cell (%),HTLV-III; [6],100%
Chitosan sulfate,Infected cell (%),HTLV-III; [5],1%
same,Infected cell (%),HTLV-III; [6],1%
same,anti-AIDS virus activity,HTLV-III; 6th day,particularly strong anti-AIDS virus activities
Chondroitin,Infected cell (%),HTLV-III; [5],100%
same,Infected cell (%),HTLV-III; [6],100%
Chondroitin-4-sulfate,Infected cell (%),HTLV-III; [5],90%
same,Infected cell (%),HTLV-III; [6],80%
Chondroitin-4-sulfate polysulfate,Infected cell (%),HTLV-III; [5],2%
same,Infected cell (%),HTLV-III; [6],1%
same,anti-AIDS virus activity,HTLV-III; 6th day,particularly strong anti-AIDS virus activities
Chondroitin-6-sulfate,Infected cell (%),HTLV-III; [5],100%
same,Infected cell (%),HTLV-III; [6],100%
Chondroitin-6-sulfate polysulfate,Infected cell (%),HTLV-III; [5],2%
same,Infected cell (%),HTLV-III; [6],1%
same,anti-AIDS virus activity,HTLV-III; 6th day,particularly strong anti-AIDS virus activities
Dermatan sulfate,Infected cell (%),HTLV-III; [5],100%
same,Infected cell (%),HTLV-III; [6],80%
"Dextran [Dextran (molecular weight 9,000)]",Infected cell (%),HTLV-III; [5],100%
same,Infected cell (%),HTLV-III; [6],100%
"Dextran sulfate [Dextran sulfate (molecular weight 3,500, S-content 6)]",Infected cell (%),HTLV-III; [7],100%
same,Infected cell (%),HTLV-III; [8],82%
same,Infected cell (%),HTLV-III; [9],1%
"Dextran sulfate [Dextran sulfate (molecular weight 8,000, S-content ≈14)]",Infected cell (%),HTLV-III; [7],25%
same,Infected cell (%),HTLV-III; [8],0%
Fucoidin,Infected cell (%),HTLV-III; [5],32%
same,Infected cell (%),HTLV-III; [6],1%
Glucose-polysulfate,Infected cell (%),HTLV-III; [5],100%
same,Infected cell (%),HTLV-III; [6],100%
same,Infected cell (%),HTLV-III; [9],100%
Heparitin sulfate,Infected cell (%),HTLV-III; [5],100%
same,Infected cell (%),HTLV-III; [6],90%
Hyaluronic acid,Infected cell (%),HTLV-III; [5],100%
same,Infected cell (%),HTLV-III; [6],100%
Hyaluronic acid sulfate,Infected cell (%),HTLV-III; [5],100%
same,Infected cell (%),HTLV-III; [6],70%
Keratan sulfate,Infected cell (%),HTLV-III; [5],100%
same,Infected cell (%),HTLV-III; [6],60%
N--acetylglucosamine polysulfate,Infected cell (%),HTLV-III; [5],100%
same,Infected cell (%),HTLV-III; [6],100%
same,Infected cell (%),HTLV-III; [9],100%
Sodium dextran sulfate,plaque formation,[1]; 100 μg/ml of DS,not detected
same,inhibition of the formation of plaque,[1]; 1-100 μg/ml,≥ 90%
same,Inhibition,[1]; DS 1 μg/ml,92%
same,Number of plagues per dish,[1]; DS 1 μg/ml,14
same,Inhibition,[1]; DS 5 μg/ml,93%
same,Number of plagues per dish,[1]; DS 5 μg/ml,12
same,Inhibition,[1]; DS 10 μg/ml,93%
same,Number of plagues per dish,[1]; DS 10 μg/ml,11
same,Inhibition,[1]; DS 50 μg/ml,92%
same,Number of plagues per dish,[1]; DS 50 μg/ml,13
same,Inhibition,[1]; DS 100 μg/ml,96%
same,Number of plagues per dish,[1]; DS 100 μg/ml,6
same,Inhibition,[1]; DS 1000 μg/ml,100%
same,Number of plagues per dish,[1]; DS 1000 μg/ml,0
same,Inhibition,[2]; DS 0.01 μg/ml,6%
same,Number of plaques per dish,[2]; DS 0.01 μg/ml,33
same,Inhibition,[2]; DS 0.1 μg/ml,45%
same,Number of plaques per dish,[2]; DS 0.1 μg/ml,19
same,Number of plaques per dish,[2]; DS 1 μg/ml,14
same,Inhibition,[2]; DS 10 μg/ml,52%
same,Number of plaques per dish,[2]; DS 10 μg/ml,17
same,Inhibition,[2]; DS 100 μg/ml,54%
same,Number of plaques per dish,[2]; DS 100 μg/ml,16
same,Number of plaques per dish,[2]; DS 500 μg/ml,0
"Sodium dextran sulfate [Sodium dextran sulfate (molecular weight: 500,000 S-content:]",Infected cell (%),"HTLV-III; 10 μg/ml, 6th day; control 100%; S-content ≈16), 8640 min",20%
same,Infected cell (%),HTLV-III; [6],0%
"Sodium dextran sulfate [Sodium dextran sulfate (molecular weight: 5000, S-content: 1]",Infected cell (%),"HTLV-III; 10 μg/ml, 6th day; control 100%; S-content ≈13), 8640 min",18%
same,Infected cell (%),HTLV-III; [6],0%
same,Cell number,MT-4 cells; 1 μg/ml,123 × 10^4 cells/ml
same,Cell number,MT-4 cells; 10 μg/ml,127 × 10^4 cells/ml
same,Viability,MT-4 cells; 10 μg/ml,92%
same,Cell number,MT-4 cells; 100 μg/ml,121 × 10^4 cells/ml
same,Viability,MT-4 cells; 100 μg/ml,93%
colominic acid,anti-AIDS virus activity,HTLV-III; 6th day,neither methylcellulose showed any anti-AIDS virus activities
dextran sulfate,anti-AIDS virus activity,HTLV-III; 6th day,particularly strong anti-AIDS virus activities
inulin,anti-AIDS virus activity,HTLV-III; 6th day,neither methylcellulose showed any anti-AIDS virus activities
keratan polysulfate,reverse transcriptase inhibition activity,[3],stronger activity than the natural substances
methylcellulose,anti-AIDS virus activity,HTLV-III; 6th day,neither methylcellulose showed any anti-AIDS virus activities
pectin,anti-AIDS virus activity,HTLV-III; 6th day,neither methylcellulose showed any anti-AIDS virus activities
sodium chondroitin sulfate,acute toxicity (LD50),[4]; intraperitoneally,"≥ 4,000 mg/kg"
same,acute toxicity (LD50),[4]; orally,"≥ 7,500 mg/kg"
κ-carrageenan [Carrageenan 20%enan 80% + λ],Infected cell (%),HTLV-III; [5],95%
same,Infected cell (%),HTLV-III; [6],1%
λ-Carrageenan,Infected cell (%),HTLV-III; [5],3%
same,Infected cell (%),HTLV-III; [6],1%
same,anti-AIDS virus activity,HTLV-III; 6th day,particularly strong anti-AIDS virus activities
